Results as given in patent publication US20060252683A1, “Preparation of a peptide compound (SYRAPRO-2000) and its use for the activation of protein phosphatase-2A1 enzyme” (priority 2005, published 2006).
Blank lines part the entries; values can stand above or below the molecule they belong to.

Columns and labels:
[1] = molecular target: T1, protein phosphatase-2A1 (Homo sapiens, UniProt P67775); test: Assay of purified protein phosphatase-2A1 in vitro with 32P-labeled phosphorylase a as substrate; type: biochemical; design: Protein phosphatase-2A1 purified from CD^4+ T cells as described in materials and method; endogenous in cells; host or cells: Jurkat cells; enzyme purified by DEAE Sepharose, Sephacryl S-300 HR and poly-L-lysine Agarose; conditions: highly purified enzyme from Jurkat cells
Procedure: Protein phosphatase-2A1 purified from CD^4+ T cells as described in materials and method was assayed in the presence of various concentrations of SYRAPRO-2000. 100 percent protein phosphatase-2A1 activity is equivalent to 0.005 unit. Similar result were obtained in 3 independent experiments.
The effect of synthesized SYRAPRO-2000 on purified protein phosphatase-2A1 can be determined in vitro. Protein phosphatase-2A1 can be assayed using ^32P-labeled phosphorylase a as substrate in the presence of various concentrations of SYRAPRO-2000. Protein phosphatase-2A1 is activated in the presence of SYRAPRO-2000.
Protein phosphatase-1 was assayed as described in (Cohen 1988). Protein phosphatase-2B was assayed as described in (Tung 1986). Protein phosphatase-2C was assayed as described in (Tung 1986) except Ca^2+ and calmodulin were omitted. The assay of protein phosphatases-2A1 consisted of 0.02 ml of enzyme solution in 50 mM Imidazole-Cl pH 7.2, 0.2 mM EGTA, 0.1% (v/v) 2-mercaptoethanol and 1 mg/ml bovine serum albumin (Assay Buffer), 0.01 ml of inhibitor-2 at 600 nM in Assay Buffer, 0.01 ml of protamine at 60 μg/ml in Assay Buffer or 0.01 ml of SYRAPRO-2000 at different concentrations in Assay Buffer or 0.01 ml of Assay Buffer alone, 0.02 ml of ^32P-labeled phosphorylase a at 3 mg/ml in Assay Buffer containing 15 mM caffeine. The assay components were preincubated for 10 minutes prior to initiating the reaction with ^32P-labeled phosphorylase a. One unit of protein phosphatase activity is that amount of enzyme which catalyzes the release of 1 nmol of phosphate from ^32P-labeled substrate per min at 30° C.
Jurkat cells, a human transformed CD^4+ T cell line, were grown in grown in RPMI 1680 supplemented with 5% (v/v) fetal bovine serum at 37° C. in 95% air/5% CO2 in a humidified incubator. 2.4 liters of cells were collected by centrifugation at 4200 rpm in a low speed centrifuge for 10 minutes. The cells were homogenized in 80 ml of 50 mM Imidazole-Cl pH 7.2, 2 mM EGTA, 2 mM EDTA, 0.1% (v/v) 2-mercaptoethanol, 0.2 mM PMSF, 1 mM benzamidine, 4 μg/ml aprotinin, 4 μg/ml leupeptin, 4 μg/ml pepstatin, 0.1 mM TLCK, 0.1 mM TPCK, 1 mM sodium orthovanadate and 10% (v/v) glycerol by 40 strokes in a glass hand held homogenizer. The homogenate was centrifuged at 29000 rpm in a high speed centrifuge for 30 minutes. The supernatant (i.e the extract) was collected and loaded onto a DEAE Sepharose column (1.5×6 cm) equilibrated in 25 mM Imidazole-Cl pH 7.2, 0.2 mM EGTA, 0.1% (v/v) 2-mercaptoethanol, 0.1 mM PMSF, 1 mM benzamidine and 10% (v/v) glycerol (Buffer A). The column was washed with 50 ml of Buffer and then eluted with a 200 ml linear gradient of Buffer A to Buffer A plus 0.4 M NaCl. The eluted fractions were then assayed for phosphorylase phosphatase activity in the presence of 100 nM inhibitor-2 and 10 μg/ml of protamine. Two major peaks of phosphorylase phosphatase were observed. The first and second peak represent protein phosphatase-2A0 and protein phosphatase-2A1 respectively. […] The major activity eluting as a species of apparent molecular mass 300 kDa was collected, diluted four fold in Buffer A and loaded onto a poly-L-lysine Agarose Column (1.5×4 cm) equilibrated in Buffer A. The column was washed with 50 ml of Buffer A and then eluted with a 200 ml linear gradient of Buffer A to Buffer A plus 0.5 M NaCl. The active fractions eluting at ˜0.30 M NaCl salt concentration was pooled, concentrated by vacuum dialysis and stored at ^−20° C. in 50 mM Imidazole-Cl pH 7.2, 0.2 mM EGTA in the presence of 50% (v/v) glycerol. The highly purified enzyme consisted of the characteristic subunits of protein phosphatase-2A1, namely the A, B and C subunits. […] It is difficult to determine the activity of protein phosphatase-2A1 in CD^4+ T cell extract. However, assuming that it represented about 66 percent of total type 2A protein phosphatase activity in CD^4+ T cell extract, the specific activity of the enzyme in extract was estimated to be 0.3 unit/mg. […]
Target sequence in this assay (P67775 whole entry): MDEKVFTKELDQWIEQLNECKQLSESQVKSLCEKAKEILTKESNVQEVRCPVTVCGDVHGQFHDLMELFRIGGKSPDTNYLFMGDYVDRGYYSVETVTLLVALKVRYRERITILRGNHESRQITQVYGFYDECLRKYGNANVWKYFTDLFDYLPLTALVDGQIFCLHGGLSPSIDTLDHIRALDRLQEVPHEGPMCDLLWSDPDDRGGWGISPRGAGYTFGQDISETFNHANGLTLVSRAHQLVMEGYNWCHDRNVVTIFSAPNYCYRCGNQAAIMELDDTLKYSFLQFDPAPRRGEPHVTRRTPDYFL
Target sequence in this assay (P30153 whole entry partner): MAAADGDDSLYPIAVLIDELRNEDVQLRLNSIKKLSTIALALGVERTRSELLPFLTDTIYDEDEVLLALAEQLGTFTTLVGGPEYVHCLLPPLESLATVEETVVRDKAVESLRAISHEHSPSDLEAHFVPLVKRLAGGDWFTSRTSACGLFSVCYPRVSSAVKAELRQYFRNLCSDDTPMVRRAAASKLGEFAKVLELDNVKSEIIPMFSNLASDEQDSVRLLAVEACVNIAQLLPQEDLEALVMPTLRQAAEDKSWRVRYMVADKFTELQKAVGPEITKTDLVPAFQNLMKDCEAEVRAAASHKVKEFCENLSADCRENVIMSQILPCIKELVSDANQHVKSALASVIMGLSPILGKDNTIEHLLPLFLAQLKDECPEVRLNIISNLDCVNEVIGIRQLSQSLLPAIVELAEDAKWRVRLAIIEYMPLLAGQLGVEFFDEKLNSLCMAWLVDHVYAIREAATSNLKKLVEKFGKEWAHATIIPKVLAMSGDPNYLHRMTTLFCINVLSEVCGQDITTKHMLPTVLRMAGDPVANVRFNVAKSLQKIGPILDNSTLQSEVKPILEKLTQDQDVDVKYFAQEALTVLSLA
Target sequence in this assay (P63151 whole entry partner): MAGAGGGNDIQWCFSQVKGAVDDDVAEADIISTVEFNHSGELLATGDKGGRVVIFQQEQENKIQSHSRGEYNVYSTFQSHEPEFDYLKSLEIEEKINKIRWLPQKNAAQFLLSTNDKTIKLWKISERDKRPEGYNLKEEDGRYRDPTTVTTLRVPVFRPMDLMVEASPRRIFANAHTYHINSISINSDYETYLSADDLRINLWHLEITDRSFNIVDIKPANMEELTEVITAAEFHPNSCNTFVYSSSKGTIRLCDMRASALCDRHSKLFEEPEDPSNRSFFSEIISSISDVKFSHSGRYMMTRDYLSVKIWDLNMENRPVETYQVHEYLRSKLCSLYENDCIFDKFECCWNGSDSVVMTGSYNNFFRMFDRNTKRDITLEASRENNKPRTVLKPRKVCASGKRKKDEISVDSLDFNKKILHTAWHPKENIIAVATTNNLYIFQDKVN

[2] = molecular target: T1, protein phosphatase-2A1; conditions: Tung 1997; Janoo 2005; cited from earlier work
Target sequence in this assay (P67775 whole entry): as the sequence (P67775 whole entry) above

Molecule: C=C1[C@@H](O)[C@@H]2O[C@]3(CC[C@H](/C=C/[C@@H](C)[C@@H]4CC(C)=C[C@@]5(O[C@H](C[C@@](C)(O)C(=O)O)CC[C@H]5O)O4)O3)CC[C@H]2O[C@@H]1[C@@H](O)C[C@H](C)[C@H]1O[C@@]2(CCCCO2)CC[C@H]1C [okadaic acid, reference compound]
effect on protein phosphatase-2A1 from CD4+ T cells [1]: inhibited

Molecule: full length HIV-1 Vpr: full length HIV-1 Vpr protein, tested in the literature
activation of protein phosphatase-2A1 [2]: not to activate

effect on protein phosphatase-2A1 from CD4+ T cells [1]: activated
Molecule: protamine [reference compound]

effect on protein phosphatase-2A1 from CD4+ T cells [1]: not inhibited
B1: inhibitor-2: Protein phosphatase-1 inhibitor-2 purified from rabbit skeletal muscle (protein, UniProt P11845 2-205, looked up)
Protein phosphatase inhibitor …: AASTASHRPIKGILKNKTSSTSSRVASAEQPRGSVDEELSKKSQKWDEMNILATYHPADKDYGLMKIDEPSTPYHSMIGDDDDAYSDTETTEAMTPDTLAKKLAAAEGSEPKYRIREQESSGEEDSDLSPEEREKKRQFEMKRKLHYNEGLNIKLARQLISKDLHDDEEDEEMSETADGESMNTEESNQGSTPSDQRQNKSQSS
